Data taken from patent US9636418B2 (priority 2013, dated 2017).
Values joined by “and” are separate entries in the source; they are usually repeats but may differ in a detail not shown here. Equal entries are not always repeated.

Experiments:
Assay in all cases: cell-based
[1] = biological target: hNav1.5 (Homo sapiens, UniProt Q14524); conditions: IonWorks Quattro; read-out: IC50 Nav1.5
[2] = biological target: hNav1.4 (Homo sapiens, UniProt P35499); conditions: for IC50: IonWorks Quattro, read-out: IC50 Nav1.4; for Nav1.4/Nav1.7: ratio of IonWorks Quattro IC50 values
[3] = biological target: hNav1.7 (Homo sapiens, UniProt Q15858); conditions: IonWorks Quattro; read-out: IC50 Nav1.7
[4] = biological target: hNav1.3 (Homo sapiens, UniProt Q9NY46); conditions: IonWorks Quattro; read-out: IC50 Nav1.3

hNav1.4, sequence (P35499 whole entry): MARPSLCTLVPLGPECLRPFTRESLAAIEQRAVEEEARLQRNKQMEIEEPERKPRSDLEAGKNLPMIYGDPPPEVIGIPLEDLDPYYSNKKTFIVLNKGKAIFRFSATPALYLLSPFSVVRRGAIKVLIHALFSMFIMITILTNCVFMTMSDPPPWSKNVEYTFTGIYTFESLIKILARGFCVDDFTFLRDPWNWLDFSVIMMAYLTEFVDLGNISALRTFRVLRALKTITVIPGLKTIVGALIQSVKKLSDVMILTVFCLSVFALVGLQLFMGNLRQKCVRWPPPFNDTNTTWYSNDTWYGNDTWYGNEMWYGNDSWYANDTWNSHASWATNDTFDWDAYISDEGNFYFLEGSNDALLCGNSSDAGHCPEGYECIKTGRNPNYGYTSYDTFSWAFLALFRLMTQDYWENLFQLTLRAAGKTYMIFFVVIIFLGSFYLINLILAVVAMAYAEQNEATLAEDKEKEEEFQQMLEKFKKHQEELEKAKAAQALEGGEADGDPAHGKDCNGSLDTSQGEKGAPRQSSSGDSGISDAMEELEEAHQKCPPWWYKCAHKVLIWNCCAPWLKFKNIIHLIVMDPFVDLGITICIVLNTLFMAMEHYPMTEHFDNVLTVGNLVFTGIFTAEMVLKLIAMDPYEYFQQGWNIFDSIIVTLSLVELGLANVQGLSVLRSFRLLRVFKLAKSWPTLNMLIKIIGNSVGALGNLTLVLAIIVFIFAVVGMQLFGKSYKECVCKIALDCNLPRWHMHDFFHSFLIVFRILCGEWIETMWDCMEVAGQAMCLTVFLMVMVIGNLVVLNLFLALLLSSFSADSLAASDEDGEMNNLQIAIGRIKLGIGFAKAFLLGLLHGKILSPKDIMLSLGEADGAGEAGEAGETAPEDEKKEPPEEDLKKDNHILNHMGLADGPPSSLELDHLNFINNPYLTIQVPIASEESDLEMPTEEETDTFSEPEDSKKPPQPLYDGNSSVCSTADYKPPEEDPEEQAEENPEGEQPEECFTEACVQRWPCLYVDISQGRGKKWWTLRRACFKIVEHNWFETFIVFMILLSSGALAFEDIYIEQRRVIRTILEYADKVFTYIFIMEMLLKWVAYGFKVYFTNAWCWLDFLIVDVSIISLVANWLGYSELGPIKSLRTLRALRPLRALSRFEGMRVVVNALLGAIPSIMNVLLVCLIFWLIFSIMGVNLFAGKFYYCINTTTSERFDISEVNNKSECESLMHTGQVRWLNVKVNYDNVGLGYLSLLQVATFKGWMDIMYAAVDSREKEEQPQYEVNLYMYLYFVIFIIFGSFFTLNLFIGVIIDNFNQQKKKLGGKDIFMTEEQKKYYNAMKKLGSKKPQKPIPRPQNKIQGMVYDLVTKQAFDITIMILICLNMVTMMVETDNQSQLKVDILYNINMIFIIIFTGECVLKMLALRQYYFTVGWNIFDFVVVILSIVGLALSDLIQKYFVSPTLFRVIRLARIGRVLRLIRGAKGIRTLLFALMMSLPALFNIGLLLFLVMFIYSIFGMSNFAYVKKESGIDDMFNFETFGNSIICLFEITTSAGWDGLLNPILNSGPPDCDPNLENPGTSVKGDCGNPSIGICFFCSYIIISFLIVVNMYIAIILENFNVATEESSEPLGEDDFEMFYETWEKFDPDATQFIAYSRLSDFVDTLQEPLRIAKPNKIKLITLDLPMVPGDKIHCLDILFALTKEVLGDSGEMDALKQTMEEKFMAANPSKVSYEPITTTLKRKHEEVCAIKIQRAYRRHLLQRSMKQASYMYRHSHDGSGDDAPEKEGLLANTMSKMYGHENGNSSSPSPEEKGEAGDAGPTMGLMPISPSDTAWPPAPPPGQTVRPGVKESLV
hNav1.7, sequence (Q15858 whole entry): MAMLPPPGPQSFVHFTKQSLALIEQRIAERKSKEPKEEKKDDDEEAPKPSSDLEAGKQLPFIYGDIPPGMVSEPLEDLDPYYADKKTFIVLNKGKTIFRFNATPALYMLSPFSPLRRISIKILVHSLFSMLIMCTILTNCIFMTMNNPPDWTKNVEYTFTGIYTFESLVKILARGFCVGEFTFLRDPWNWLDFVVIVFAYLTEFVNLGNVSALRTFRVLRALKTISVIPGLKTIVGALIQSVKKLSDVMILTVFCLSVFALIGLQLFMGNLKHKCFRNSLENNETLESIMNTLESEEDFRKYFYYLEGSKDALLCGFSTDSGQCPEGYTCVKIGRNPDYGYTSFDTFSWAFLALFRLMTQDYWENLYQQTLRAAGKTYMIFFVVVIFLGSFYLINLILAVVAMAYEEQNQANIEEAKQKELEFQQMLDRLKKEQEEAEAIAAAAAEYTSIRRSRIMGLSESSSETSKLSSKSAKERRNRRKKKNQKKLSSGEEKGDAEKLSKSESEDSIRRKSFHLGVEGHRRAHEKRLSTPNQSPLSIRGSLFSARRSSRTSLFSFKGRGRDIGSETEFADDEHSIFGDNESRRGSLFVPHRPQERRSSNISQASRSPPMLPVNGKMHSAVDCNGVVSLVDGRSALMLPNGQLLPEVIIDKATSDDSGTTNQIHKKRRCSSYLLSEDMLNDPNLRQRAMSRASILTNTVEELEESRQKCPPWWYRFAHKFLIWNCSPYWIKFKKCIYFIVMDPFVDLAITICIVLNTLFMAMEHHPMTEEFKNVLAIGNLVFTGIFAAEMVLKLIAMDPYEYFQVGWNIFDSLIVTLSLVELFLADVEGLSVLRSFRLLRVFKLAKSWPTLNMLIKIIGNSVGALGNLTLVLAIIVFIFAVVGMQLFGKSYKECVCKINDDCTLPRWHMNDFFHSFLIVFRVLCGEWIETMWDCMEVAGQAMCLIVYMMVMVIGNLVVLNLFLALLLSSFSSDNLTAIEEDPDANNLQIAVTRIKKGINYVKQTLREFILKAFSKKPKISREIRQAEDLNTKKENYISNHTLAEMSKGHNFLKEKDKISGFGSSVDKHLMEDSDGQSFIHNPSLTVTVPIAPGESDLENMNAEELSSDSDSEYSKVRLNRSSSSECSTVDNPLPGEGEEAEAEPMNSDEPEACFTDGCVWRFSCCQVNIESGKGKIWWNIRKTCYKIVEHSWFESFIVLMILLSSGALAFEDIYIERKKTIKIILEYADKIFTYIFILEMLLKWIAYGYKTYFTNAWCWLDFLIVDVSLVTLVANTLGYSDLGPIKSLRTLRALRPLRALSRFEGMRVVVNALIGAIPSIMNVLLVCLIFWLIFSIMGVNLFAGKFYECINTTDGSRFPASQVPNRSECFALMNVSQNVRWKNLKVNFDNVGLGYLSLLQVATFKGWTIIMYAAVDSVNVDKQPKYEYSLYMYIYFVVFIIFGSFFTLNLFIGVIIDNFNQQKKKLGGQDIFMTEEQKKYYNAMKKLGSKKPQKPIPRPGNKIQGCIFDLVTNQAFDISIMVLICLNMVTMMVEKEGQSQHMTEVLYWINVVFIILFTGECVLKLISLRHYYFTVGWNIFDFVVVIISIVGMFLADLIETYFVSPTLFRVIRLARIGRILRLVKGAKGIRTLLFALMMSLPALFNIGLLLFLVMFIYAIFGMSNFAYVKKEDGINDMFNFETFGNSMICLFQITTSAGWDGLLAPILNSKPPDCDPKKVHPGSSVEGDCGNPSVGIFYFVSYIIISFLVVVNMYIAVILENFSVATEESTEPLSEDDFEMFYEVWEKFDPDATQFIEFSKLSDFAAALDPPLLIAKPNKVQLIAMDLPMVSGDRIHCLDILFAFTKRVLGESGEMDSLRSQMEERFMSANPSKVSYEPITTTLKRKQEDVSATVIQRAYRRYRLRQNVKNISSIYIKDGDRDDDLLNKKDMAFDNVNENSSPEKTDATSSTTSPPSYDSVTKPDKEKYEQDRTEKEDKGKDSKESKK

## CCC[C@@H]1NC(=O)[C@H](CC(C)C)NC(=O)CNC(=O)[C@H](CCC(=O)O)NC(=O)[C@@H]2CSSC[C@H](NC(=O)[C@@H](N)Cc3ccc(O)cc3)C(=O)N[C@@H](CCC(N)=O)C(=O)N[C@@H](CCCCN)C(=O)N[C@@H](Cc3c[nH]c4ccccc34)C(=O)N[C@@H](CCSC)C(=O)N[C@@H](Cc3c[nH]c4ccccc34)C(=O)N[C@@H]([C@@H](C)O)C(=O)N[C@H]3CSSC[C@H](NC1=O)C(=O)N[C@@H](CCCCN)C(=O)N[C@@H](CC(C)C)C(=O)N[C@@H](Cc1c[nH]c4ccccc14)C(=O)N[C@H](C(=O)N[C@@H](CCCNC(=N)N)C(=O)N[C@@H](CCCCN)C(=O)N[C@H](C(=O)N[C@H](C(N)=O)[C@@H](C)CC)[C@@H](C)CC)CSSC[C@H](NC(=O)[C@H](C)NC(=O)[C@H](CCCNC(=N)N)NC(=O)[C@H](CCCCN)NC(=O)[C@H](CO)NC(=O)[C@H](CC(=O)O)NC3=O)C(=O)N2 [compound 123]
[1]
  IC50: 10.4 µM
[2]
  IC50: 3.1 µM
  Nav1.4/Nav1.7: 19
[3]
  IC50: 0.17 µM
[4]
  IC50: > 5 µM

## CC[C@H](C)[C@H](NC(=O)[C@@H](NC(=O)[C@H](CCCCN)NC(=O)[C@H](CCCNC(=N)N)NC(=O)[C@@H]1CSSC[C@@H]2NC(=O)[C@H](C)NC(=O)[C@H](CCCNC(=N)N)NC(=O)[C@H](CCCCN)NC(=O)[C@H](CO)NC(=O)[C@H](CC(=O)O)NC(=O)[C@@H]3CSSC[C@H](NC(=O)[C@H](CO)NC(=O)[C@H](CC(C)C)NC(=O)CNC(=O)[C@H](CCC(=O)O)NC(=O)[C@H](CSSC[C@H](NC(=O)[C@@H](N)Cc4ccc(O)cc4)C(=O)N[C@@H](CCC(N)=O)C(=O)N[C@@H](CCCCN)C(=O)N[C@@H](Cc4c[nH]c5ccccc45)C(=O)N[C@@H](CCSC)C(=O)N[C@@H](Cc4c[nH]c5ccccc45)C(=O)N[C@@H]([C@@H](C)O)C(=O)N3)NC2=O)C(=O)N[C@@H](CCCCN)C(=O)N[C@@H](CC(C)C)C(=O)N[C@@H](Cc2c[nH]c3ccccc23)C(=O)N1)[C@@H](C)CC)C(N)=O [compound 125]
[1]
  IC50: 9.2 µM
[2]
  IC50: 0.4 µM
  Nav1.4/Nav1.7: 17
[3]
  IC50: 0.03 µM
[4]
  IC50: 0.29 µM

## CC[C@H](C)[C@H](NC(=O)[C@H](CCC(=O)O)NC(=O)[C@H](CCCCN)NC(=O)[C@H](CCCNC(=N)N)NC(=O)[C@@H]1CSSC[C@@H]2NC(=O)[C@H](C)NC(=O)[C@H](CCCNC(=N)N)NC(=O)[C@H](CCCCN)NC(=O)[C@H](CO)NC(=O)[C@H](CC(=O)O)NC(=O)[C@@H]3CSSC[C@H](NC(=O)[C@H](CCC(=O)O)NC(=O)[C@H](CC(C)C)NC(=O)CNC(=O)[C@H](CCC(=O)O)NC(=O)[C@H](CSSC[C@H](NC(=O)[C@@H](N)Cc4ccc(O)cc4)C(=O)N[C@@H](CCC(N)=O)C(=O)N[C@@H](CCCCN)C(=O)N[C@@H](Cc4c[nH]c5ccccc45)C(=O)N[C@@H](CCSC)C(=O)N[C@@H](Cc4c[nH]c5ccccc45)C(=O)N[C@@H]([C@@H](C)O)C(=O)N3)NC2=O)C(=O)N[C@@H](CCCCN)C(=O)N[C@@H](CC(C)C)C(=O)N[C@@H](Cc2c[nH]c3ccccc23)C(=O)N1)C(N)=O [compound 126]
[1]
  IC50: 15.8 µM and 7.5 µM
[2]
  IC50: > 5 µM
  Nav1.4/Nav1.7: 5 and 3
[3]
  IC50: 0.95 µM and 1.44 µM
[4]
  IC50: > 5 µM

## CC[C@H](C)[C@H](NC(=O)[C@H](Cc1ccc(C(=O)O)cc1)NC(=O)[C@H](CCCCN)NC(=O)[C@H](CCCNC(=N)N)NC(=O)[C@@H]1CSSC[C@@H]2NC(=O)[C@H](C)NC(=O)[C@H](CCCNC(=N)N)NC(=O)[C@H](CCCCN)NC(=O)[C@H](CO)NC(=O)[C@H](CC(=O)O)NC(=O)[C@@H]3CSSC[C@H](NC(=O)[C@H](CCC(=O)O)NC(=O)[C@H](CC(C)C)NC(=O)CNC(=O)[C@H](CCC(=O)O)NC(=O)[C@H](CSSC[C@H](NC(=O)[C@@H](N)Cc4ccc(O)cc4)C(=O)N[C@@H](CCC(N)=O)C(=O)N[C@@H](CCCCN)C(=O)N[C@@H](Cc4c[nH]c5ccccc45)C(=O)N[C@@H](CCSC)C(=O)N[C@@H](Cc4c[nH]c5ccccc45)C(=O)N[C@@H]([C@@H](C)O)C(=O)N3)NC2=O)C(=O)N[C@@H](CCCCN)C(=O)N[C@@H](CC(C)C)C(=O)N[C@@H](Cc2c[nH]c3ccccc23)C(=O)N1)C(N)=O [compound 127]
[1]
  IC50: 16.7 µM
[2]
  IC50: > 5 µM
  Nav1.4/Nav1.7: 2
[3]
  IC50: 2.35 µM
[4]
  IC50: > 5 µM

## CC[C@H](C)[C@H](NC(=O)[C@H](CC(=O)O)NC(=O)[C@H](CCCCN)NC(=O)[C@H](CCCNC(=N)N)NC(=O)[C@@H]1CSSC[C@@H]2NC(=O)[C@H](C)NC(=O)[C@H](CCCNC(=N)N)NC(=O)[C@H](CCCCN)NC(=O)[C@H](CO)NC(=O)[C@H](CC(=O)O)NC(=O)[C@@H]3CSSC[C@H](NC(=O)[C@H](CCC(=O)O)NC(=O)[C@H](CC(C)C)NC(=O)CNC(=O)[C@H](CCC(=O)O)NC(=O)[C@H](CSSC[C@H](NC(=O)[C@@H](N)Cc4ccc(O)cc4)C(=O)N[C@@H](CCC(N)=O)C(=O)N[C@@H](CCCCN)C(=O)N[C@@H](Cc4c[nH]c5ccccc45)C(=O)N[C@@H](CCSC)C(=O)N[C@@H](Cc4c[nH]c5ccccc45)C(=O)N[C@@H]([C@@H](C)O)C(=O)N3)NC2=O)C(=O)N[C@@H](CCCCN)C(=O)N[C@@H](CC(C)C)C(=O)N[C@@H](Cc2c[nH]c3ccccc23)C(=O)N1)C(N)=O [compound 128]
[1]
  IC50: 13.9 µM
[2]
  IC50: > 5 µM
  Nav1.4/Nav1.7: 4
[3]
  IC50: 1.34 µM
[4]
  IC50: > 5 µM

## CC[C@H](C)[C@H](NC(=O)[C@H](CC(C)C)NC(=O)[C@H](CCCCN)NC(=O)[C@H](CCCNC(=N)N)NC(=O)[C@@H]1CSSC[C@@H]2NC(=O)[C@H](C)NC(=O)[C@H](CCCNC(=N)N)NC(=O)[C@H](CCCCN)NC(=O)[C@H](CO)NC(=O)[C@H](CC(=O)O)NC(=O)[C@@H]3CSSC[C@H](NC(=O)[C@H](CCC(=O)O)NC(=O)[C@H](CC(C)C)NC(=O)CNC(=O)[C@H](CCC(=O)O)NC(=O)[C@H](CSSC[C@H](NC(=O)[C@@H](N)Cc4ccc(O)cc4)C(=O)N[C@@H](CCC(N)=O)C(=O)N[C@@H](CCCCN)C(=O)N[C@@H](Cc4c[nH]c5ccccc45)C(=O)N[C@@H](CCSC)C(=O)N[C@@H](Cc4c[nH]c5ccccc45)C(=O)N[C@@H]([C@@H](C)O)C(=O)N3)NC2=O)C(=O)N[C@@H](CCCCN)C(=O)N[C@@H](CC(C)C)C(=O)N[C@@H](Cc2c[nH]c3ccccc23)C(=O)N1)C(N)=O [compound 132]
[1]
  IC50: 6.7 µM
[2]
  IC50: > 5 µM
  Nav1.4/Nav1.7: 12
[3]
  IC50: 0.41 µM
[4]
  IC50: > 5 µM

## CC[C@H](C)[C@H](NC(=O)[C@@H](NC(=O)[C@H](CCCCN)NC(=O)[C@H](CCCNC(=N)N)NC(=O)[C@@H]1CSSC[C@@H]2NC(=O)[C@H](C)NC(=O)[C@H](CCCNC(=N)N)NC(=O)[C@H](CCCCN)NC(=O)[C@H](CO)NC(=O)[C@H](CC(=O)O)NC(=O)[C@@H]3CSSC[C@H](NC(=O)[C@H](CCC(=O)O)NC(=O)[C@H](CC(C)C)NC(=O)CNC(=O)[C@H](CCC(=O)O)NC(=O)[C@H](CSSC[C@H](NC(=O)[C@@H](N)Cc4cn(CCCOCCOCCOCCOCCOCCOCCOCCOCCOCCOCCN)nn4)C(=O)N[C@@H](CCC(N)=O)C(=O)N[C@@H](CCCCN)C(=O)N[C@@H](Cc4c[nH]c5ccccc45)C(=O)N[C@@H](CCSC)C(=O)N[C@@H](Cc4c[nH]c5ccccc45)C(=O)N[C@@H]([C@@H](C)O)C(=O)N3)NC2=O)C(=O)N[C@@H](CCCCN)C(=O)N[C@@H](CC(C)C)C(=O)N[C@@H](Cc2c[nH]c3ccccc23)C(=O)N1)[C@@H](C)CC)C(N)=O [compound 165]
[1]
  IC50: 15.1 µM
[2]
  IC50: > 5 µM
  Nav1.4/Nav1.7: 28
[3]
  IC50: 0.18 µM
[4]
  IC50: > 5 µM

## CC[C@H](C)[C@H](NC(=O)[C@@H](NC(=O)[C@H](CCCCN)NC(=O)[C@H](CCCNC(=N)N)NC(=O)[C@@H]1CSSC[C@@H]2NC(=O)[C@H](C)NC(=O)[C@H](CCCNC(=N)N)NC(=O)[C@H](CCCCN)NC(=O)[C@H](CO)NC(=O)[C@H](CC(=O)O)NC(=O)[C@@H]3CSSC[C@H](NC(=O)[C@H](CCC(=O)O)NC(=O)[C@H](CC(C)C)NC(=O)CNC(=O)[C@H](Cc4cn(CCCOCCOCCOCCOCCOCCOCCOCCOCCOCCOCCN)nn4)NC(=O)[C@H](CSSC[C@H](NC(=O)[C@@H](N)Cc4ccc(O)cc4)C(=O)N[C@@H](CCC(N)=O)C(=O)N[C@@H](CCCCN)C(=O)N[C@@H](Cc4c[nH]c5ccccc45)C(=O)N[C@@H](CCSC)C(=O)N[C@@H](Cc4c[nH]c5ccccc45)C(=O)N[C@@H]([C@@H](C)O)C(=O)N3)NC2=O)C(=O)N[C@@H](CCCCN)C(=O)N[C@@H](CC(C)C)C(=O)N[C@@H](Cc2c[nH]c3ccccc23)C(=O)N1)[C@@H](C)CC)C(N)=O [compound 178]
[1]
  IC50: 15.1 µM
[2]
  IC50: > 5 µM
  Nav1.4/Nav1.7: 28
[3]
  IC50: 0.18 µM
[4]
  IC50: > 5 µM

## CC[C@H](C)[C@H](NC(=O)[C@@H](NC(=O)[C@H](CCCCN)NC(=O)[C@H](CCCNC(=N)N)NC(=O)[C@@H]1CSSC[C@@H]2NC(=O)[C@H](C)NC(=O)[C@H](CCCNC(=N)N)NC(=O)[C@H](CCCCN)NC(=O)[C@H](CO)NC(=O)[C@H](CC(=O)O)NC(=O)[C@@H]3CSSC[C@H](NC(=O)[C@H](CCC(=O)O)NC(=O)[C@H](CC(C)C)NC(=O)CNC(=O)[C@H](CCC(=O)O)NC(=O)[C@H](CSSC[C@H](NC(=O)[C@@H](N)Cc4ccc(O)cc4)C(=O)N[C@@H](CCC(N)=O)C(=O)N[C@@H](CCCCN)C(=O)N[C@@H](Cc4c[nH]c5ccccc45)C(=O)N[C@@H](CCSC)C(=O)N[C@@H](Cc4c[nH]c5ccccc45)C(=O)N[C@@H]([C@@H](C)O)C(=O)N3)NC2=O)C(=O)N[C@@H](CCCCN)C(=O)N[C@@H](Cc2cn(CCCOCCOCCOCCOCCOCCOCCOCCOCCOCCOCCN)nn2)C(=O)N[C@@H](Cc2c[nH]c3ccccc23)C(=O)N1)[C@@H](C)CC)C(N)=O [compound 183]
[1]
  IC50: 19.2 µM
[2]
  IC50: > 5 µM
  Nav1.4/Nav1.7: 1
[3]
  IC50: ≥ 5 µM
[4]
  IC50: > 5 µM
